The subject of the assay is mice liver cancer H22 cells. Description: Tumor suppression by FpAT and derivative peptides in liver cancer H22 tumor-bearing mouse model (Example 14). Conditions: peptides 50 μg/100 μl PBS/injection, angulus oculi medialis vein daily, 7 times; CTX 80 mg/KG; tumors weighed. It is filed as in vivo, mice of Kunming strain. On the procedure: Ninety 5-week old mice of Kunming strain purchased from Animal Center Of Chinese Academy Of Medical Sciences were inoculated subcutaneously in forelimb with mice liver cancer H22 cells (National Institute for the Control of Pharmaceutical and Biological Products) (5×10^6/100 μl/mouse). On the next day after inoculation, each kind of inoculated cells were divided randomly into […] with 10 mice per group. FpAT (50 μg/100 μl PBS/injection) and 7 kinds of derivative peptides thereof (see Table 5 below for detailed sequence):FpAT-N3d, FpAT-N6d, FpAT-N9d, FpAT-C3d, FpAT-C6d, FpAT-C9d, FpAT-N5d-C4d, and vehicle control (PBS:100 μl/injection) were injected in angulus oculi medialis vein, with CTX (cyclophosphamide) (80 mg/KG) as positive control daily, 7 times in total. The mice were sacrificed by dislocating the neck on the next day after administration was stopped, and the tumors were taken and weighed for a statistical analysis.

Molecule “H2N-Glu-Gly-Asp-Phe-Leu-Ala-Glu-Gly-Gly-Gly-Val-Arg-COOH (H-EGDFLAEGGGVR-OH; listed as Homo sapiens) [FpAT-N3d]” registered a tumor suppressing rate of 63.3%.

“H2N-Asp-Ser-Gly-Glu-Gly-Asp-Phe-Leu-Ala-Glu-Gly-Gly-COOH (H-DSGEGDFLAEGG-OH; listed as Homo sapiens) [FpAT-C3d]” yielded a tumor suppressing rate of 46.7%.

Consider “H2N-Asp-Ser-Gly-Glu-Gly-Asp-COOH (H-DSGEGD-OH; listed as Homo sapiens) [FpAT-C9d]”, for which the tumor suppressing rate came out at 34.5%.

For “H2N-Phe-Leu-Ala-Glu-Gly-Gly-Gly-Val-Arg-COOH (H-FLAEGGGVR-OH; listed as Homo sapiens) [FpAT-N6d]”, the tumor suppressing rate is 57.6%.

In the case of “H2N-Asp-Ser-Gly-Glu-Gly-Asp-Phe-Leu-Ala-COOH (H-DSGEGDFLA-OH; listed as Homo sapiens) [FpAT-C6d]”, the tumor suppressing rate came to 32.3%.

`O=P1(N(CCCl)CCCl)NCCCO1` (centres unmarked) [CTX, cyclophosphamide, reference compound] came in with a tumor suppressing rate of 89.9%.

“H2N-Glu-Gly-Gly-Gly-Val-Arg-COOH (H-EGGGVR-OH; listed as Homo sapiens) [FpAT-N9d]” gave a tumor suppressing rate of 34.5%.

In the case of “H2N-Asp-Phe-Leu-Ala-Glu-Gly-COOH (H-DFLAEG-OH; listed as Homo sapiens) [FpAT-N5d-C4d]”, the tumor suppressing rate is 56.4%.

(Values after patent publication US8377883B2, “Peptide for anti-angiogenesis and use thereof” (Beijing Institute for Cancer Research, priority 2006, dated 2013).)
